Results from ChEMBL document CHEMBL3885881, “DrugMatrix”.

Species on record: Rattus norvegicus
Test: DrugMatrix - Regimen: Daily Repeat
Assay type: toxicity, organism-based, Sprague-Dawley
Parameters: regimen Daily Repeat, gender Male, age 6-8 weeks
Conditions: in vivo, po, route oral GAVAGE, […]; for ABSOLUTE BASOPHIL / ABSOLUTE EOSINOPHIL / ABSOLUTE LYMPHOCYTE / ABSOLUTE MONOCYTE / ABSOLUTE SEGMENTED NEUTROPHIL / BASOPHIL / EOSINOPHIL / ERYTHROCYTE COUNT / HEMATOCRIT / HEMOGLOBIN / LEUKOCYTE COUNT / LYMPHOCYTE / MEAN CORPUSCULAR HEMOGLOBIN / MEAN CORPUSCULAR HEMOGLOBIN CONCENTRATION / MEAN CORPUSCULAR VOLUME / MONOCYTE / NEUTROPHIL / NUCLEATED RED BLOOD CELLS / PLATELET COUNT: tissue Blood; for ALANINE AMINOTRANSFERASE / ALBUMIN / ALKALINE PHOSPHATASE / ASPARTATE AMINOTRANSFERASE / BLOOD UREA NITROGEN / CARBON DIOXIDE / CHLORIDE / CHOLESTEROL / CREATINE PHOSPHOKINASE / CREATININE / GLUCOSE / LACTATE DEHYDROGENASE / LIPASE / PHOSPHORUS / POTASSIUM / SODIUM / TOTAL BILIRUBIN / TOTAL PROTEIN / URIC ACID: tissue Plasma
[1] = 3 mg/kg, 120 h, dose level Low, time 5 day
[2] = 775 mg/kg, 72 h, dose level High, time 3 day
[3] = 775 mg/kg, 120 h, dose level High, time 5 day

## CS(=O)(=O)c1ccc(C2=C(c3ccccc3)C(=O)OC2)cc1 [ROFECOXIB]
[1]
  ABSOLUTE BASOPHIL: 0 CELLS/uL
  ABSOLUTE EOSINOPHIL: 0 CELLS/uL
  ABSOLUTE LYMPHOCYTE: 7546 CELLS/uL
  ABSOLUTE MONOCYTE: 71.67 CELLS/uL
  ABSOLUTE SEGMENTED NEUTROPHIL: 782.33 CELLS/uL
  BASOPHIL: 0%
  EOSINOPHIL: 0%
  ERYTHROCYTE COUNT: 5.17 x10E6/uL
  HEMATOCRIT: 33.27%
  HEMOGLOBIN: 13.07 G/DL
  LEUKOCYTE COUNT: 8.4 x10E3/uL
  LYMPHOCYTE: 90.67%
  MEAN CORPUSCULAR HEMOGLOBIN: 25.27 pg
  MEAN CORPUSCULAR HEMOGLOBIN CONCENTRATION: 39.27 G/DL
  MEAN CORPUSCULAR VOLUME: 64.33 fL
  MONOCYTE: 1%
  NEUTROPHIL: 8.33%
  NUCLEATED RED BLOOD CELLS: 0 /100WBC
  PLATELET COUNT: 1212.67 x10E3/uL
  ALANINE AMINOTRANSFERASE: 57.33 u/L
  ALBUMIN: 4.17 G/DL
  ALKALINE PHOSPHATASE: 300.67 u/L
  ASPARTATE AMINOTRANSFERASE: 85.67 u/L
  BLOOD UREA NITROGEN: 12.33 mg/dL
  CARBON DIOXIDE: 27.67 mmol/L
  CHLORIDE: 100.67 MEQ/L
  CHOLESTEROL: 62 mg/dL
  CREATINE PHOSPHOKINASE: 325.33 u/L
  CREATININE: 0.22 mg/dL
  GLUCOSE: 165 mg/dL
  LACTATE DEHYDROGENASE: 77 u/L
  LIPASE: 11.33 u/L
  PHOSPHORUS: 9.4 mg/dL
  POTASSIUM: 6.14 MEQ/L
  SODIUM: 145.9 MEQ/L
  TOTAL BILIRUBIN: 0.13 mg/dL
  TOTAL PROTEIN: 6.1 G/DL
  URIC ACID: 0.73 mg/dL
[2]
  ABSOLUTE BASOPHIL: 0 CELLS/uL
  ABSOLUTE EOSINOPHIL: 0 CELLS/uL
  ABSOLUTE LYMPHOCYTE: 11625.33 CELLS/uL
  ABSOLUTE MONOCYTE: 298.67 CELLS/uL
  ABSOLUTE SEGMENTED NEUTROPHIL: 1009.33 CELLS/uL
  BASOPHIL: 0%
  EOSINOPHIL: 0%
  ERYTHROCYTE COUNT: 5.13 x10E6/uL
  HEMATOCRIT: 32.27%
  HEMOGLOBIN: 12.53 G/DL
  LEUKOCYTE COUNT: 12.93 x10E3/uL
  LYMPHOCYTE: 90%
  MEAN CORPUSCULAR HEMOGLOBIN: 24.43 pg
  MEAN CORPUSCULAR HEMOGLOBIN CONCENTRATION: 38.83 G/DL
  MEAN CORPUSCULAR VOLUME: 62.93 fL
  MONOCYTE: 2.33%
  NEUTROPHIL: 7.67%
  NUCLEATED RED BLOOD CELLS: 0.33 /100WBC
  PLATELET COUNT: 877.67 x10E3/uL
  ALANINE AMINOTRANSFERASE: 55.33 u/L
  ALBUMIN: 3.53 G/DL
  ALKALINE PHOSPHATASE: 313.67 u/L
  ASPARTATE AMINOTRANSFERASE: 81.33 u/L
  BLOOD UREA NITROGEN: 14.33 mg/dL
  CARBON DIOXIDE: 26.67 mmol/L
  CHLORIDE: 99.33 MEQ/L
  CHOLESTEROL: 77.67 mg/dL
  CREATINE PHOSPHOKINASE: 192.67 u/L
  CREATININE: 0.21 mg/dL
  GLUCOSE: 185.67 mg/dL
  LACTATE DEHYDROGENASE: 91.33 u/L
  LIPASE: 22.33 u/L
  PHOSPHORUS: 10.4 mg/dL
  POTASSIUM: 5.68 MEQ/L
  SODIUM: 144.1 MEQ/L
  TOTAL BILIRUBIN: 0.1 mg/dL
  TOTAL PROTEIN: 5.6 G/DL
  URIC ACID: 0.87 mg/dL
[3]
  ABSOLUTE BASOPHIL: 0 CELLS/uL
  ABSOLUTE EOSINOPHIL: 72.67 CELLS/uL
  ABSOLUTE LYMPHOCYTE: 8378 CELLS/uL
  ABSOLUTE MONOCYTE: 35.33 CELLS/uL
  ABSOLUTE SEGMENTED NEUTROPHIL: 1314 CELLS/uL
  BASOPHIL: 0%
  EOSINOPHIL: 0.67%
  ERYTHROCYTE COUNT: 4.79 x10E6/uL
  HEMATOCRIT: 30.33%
  HEMOGLOBIN: 11.77 G/DL
  LEUKOCYTE COUNT: 9.8 x10E3/uL
  LYMPHOCYTE: 84%
  MEAN CORPUSCULAR HEMOGLOBIN: 24.53 pg
  MEAN CORPUSCULAR HEMOGLOBIN CONCENTRATION: 38.8 G/DL
  MEAN CORPUSCULAR VOLUME: 63.33 fL
  MONOCYTE: 0.67%
  NEUTROPHIL: 14.67%
  NUCLEATED RED BLOOD CELLS: 0 /100WBC
  PLATELET COUNT: 1142 x10E3/uL
  ALANINE AMINOTRANSFERASE: 51 u/L
  ALBUMIN: 3.33 G/DL
  ALKALINE PHOSPHATASE: 298.67 u/L
  ASPARTATE AMINOTRANSFERASE: 77.33 u/L
  BLOOD UREA NITROGEN: 12.67 mg/dL
  CARBON DIOXIDE: 28 mmol/L
  CHLORIDE: 99.67 MEQ/L
  CHOLESTEROL: 80 mg/dL
  CREATINE PHOSPHOKINASE: 192.67 u/L
  CREATININE: 0.34 mg/dL
  GLUCOSE: 160.67 mg/dL
  LACTATE DEHYDROGENASE: 72 u/L
  LIPASE: 12.67 u/L
  PHOSPHORUS: 9.2 mg/dL
  POTASSIUM: 5.83 MEQ/L
  SODIUM: 144.83 MEQ/L
  TOTAL BILIRUBIN: 0.1 mg/dL
  TOTAL PROTEIN: 5.6 G/DL
  URIC ACID: 0.7 mg/dL
